For one test, the target named is BRD4-BD1 (Homo sapiens (Human), UniProt O60885). The test can be described thus: AlphaLisa bromodomain binding assay, BRD4-BD1. Conditions: Table 6; read-out: BRD4(1) IC50.
The target in another test is BRD4-BD2 (Homo sapiens (Human), UniProt O60885). As to the kind of experiment: AlphaLisa bromodomain binding assay, BRD4-BD2. Conditions: Table 6; read-out: BRD4(2) IC50. The text has this:
(§1) An AlphaLisa assay was used to observe bromodomain binding and measure IC50s for the compounds disclosed herein. An AlphaLisa assay is a bead-based assay used to detect interactions between bromodomains and polyacetylated histone peptides. Donor and acceptor beads bound to target and ligand are brought into proximity by this protein-protein interaction.
(§2) Equipment Required • 1. […] Plate centrifuge • 3. Plate shaker • 4. […] Single channel and multi-channel pipettes • 6. Microplate reader (Pherastar)
(§3) Stock and Final Assay Concentrations (FAC) • 1. All reference and test compounds are made at a concentration of 10 mM in DMSO. Compounds are serially diluted in DMSO and a FAC starting from 10 μM to 10 point 3 fold serial dilutions is arrived. FAC of DMSO is 1%. • 2. Enzyme stock and FAC
(§4) Biotinylated substrate (Acetylated histone H4, biotinylated substrate—cat no. AS64989-025, Anaspec) stock and FAC
(§5) • 4. Acceptor and donor beads stock and FAC
(§6) Buffers • For the enzyme and substrate dilution following buffer is used (for 50 ml) • HEPES: 50 mM 2.5 ml • NaCl: 25 mM 1.25 ml • DTT: 10 mM 0.05 ml • BSA: 0.1% 0.05 g • MilliQ water: 45.7 ml • For dilution of acceptor and donor beads AlphaLISA 5× epigenetics Buffer Perkin Elmer (Cat: AL008C) is used at 1× concentration.
(§7) Procedure • 1. […] Tap the plate gently • 3. […] Cover with plate sealer • 5. […] Incubate the plate at room temperature for 10 minutes • 7. Add 10 μl of the substrate • 8. Cover with plate sealer • 9. […] Cover with plate sealer • 14. […] Cover with plate sealer • 18.
(§8) The percent inhibition is calculated in the excel analysis template and the IC50 values are subsequently determined using a sigmoidal dose-response curve (variable slope) using GraphPad Prism® 5 software.

The target of a further test is BRD2-BD1 (Homo sapiens (Human), UniProt P25440). As to the kind of experiment: AlphaLisa bromodomain binding assay, BRD2-BD1. Particulars: Table 6; read-out: BRD2(1) IC50.
BRD2-BD1, sequence (P25440 74-180): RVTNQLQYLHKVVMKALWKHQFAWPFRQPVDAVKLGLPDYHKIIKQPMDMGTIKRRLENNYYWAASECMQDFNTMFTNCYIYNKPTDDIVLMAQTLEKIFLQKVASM
From the text: as §1, §2, §3, §4, §5, §6, §7, §8
On the technique in general: In Alpha technology, singlet oxygen from a donor bead excites a nearby acceptor bead.

The target in the next test is BRD3-BD1 (Homo sapiens (Human), UniProt Q15059). The test can be described thus: AlphaLisa bromodomain binding assay, BRD3-BD1. Particulars: Table 6; read-out: BRD3(1) IC50.
BRD3-BD1, sequence (Q15059 34-140): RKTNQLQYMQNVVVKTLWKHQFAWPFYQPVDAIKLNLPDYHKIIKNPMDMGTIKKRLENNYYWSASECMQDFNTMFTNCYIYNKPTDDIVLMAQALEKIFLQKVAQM
From the text: as §1, §2, §3, §4, §5, §6, §7, §8

The target of the next test is BRDT-BD1 (Homo sapiens (Human), UniProt Q58F21). The test can be described thus: AlphaLisa bromodomain binding assay, BRDT-BD1. Conditions: Table 6; read-out: BRDT(1) IC50.
From the text: as §1, §2, §3, §4, §5, §6, §7, §8

A further test addresses JAK2 (Homo sapiens (Human), UniProt O60674). The test can be described thus: HTRF kinase assay, JAK2. It counts as biochemical. Conditions: Table 6. For orientation: Time-resolved FRET reads energy transfer from a long-lived donor to a nearby acceptor.
The target in another test is JAK1 (Homo sapiens (Human), UniProt P23458). The test can be described thus: HTRF kinase assay, JAK1. The format is biochemical. Particulars: Table 6.
JAK1, sequence (P23458 whole entry): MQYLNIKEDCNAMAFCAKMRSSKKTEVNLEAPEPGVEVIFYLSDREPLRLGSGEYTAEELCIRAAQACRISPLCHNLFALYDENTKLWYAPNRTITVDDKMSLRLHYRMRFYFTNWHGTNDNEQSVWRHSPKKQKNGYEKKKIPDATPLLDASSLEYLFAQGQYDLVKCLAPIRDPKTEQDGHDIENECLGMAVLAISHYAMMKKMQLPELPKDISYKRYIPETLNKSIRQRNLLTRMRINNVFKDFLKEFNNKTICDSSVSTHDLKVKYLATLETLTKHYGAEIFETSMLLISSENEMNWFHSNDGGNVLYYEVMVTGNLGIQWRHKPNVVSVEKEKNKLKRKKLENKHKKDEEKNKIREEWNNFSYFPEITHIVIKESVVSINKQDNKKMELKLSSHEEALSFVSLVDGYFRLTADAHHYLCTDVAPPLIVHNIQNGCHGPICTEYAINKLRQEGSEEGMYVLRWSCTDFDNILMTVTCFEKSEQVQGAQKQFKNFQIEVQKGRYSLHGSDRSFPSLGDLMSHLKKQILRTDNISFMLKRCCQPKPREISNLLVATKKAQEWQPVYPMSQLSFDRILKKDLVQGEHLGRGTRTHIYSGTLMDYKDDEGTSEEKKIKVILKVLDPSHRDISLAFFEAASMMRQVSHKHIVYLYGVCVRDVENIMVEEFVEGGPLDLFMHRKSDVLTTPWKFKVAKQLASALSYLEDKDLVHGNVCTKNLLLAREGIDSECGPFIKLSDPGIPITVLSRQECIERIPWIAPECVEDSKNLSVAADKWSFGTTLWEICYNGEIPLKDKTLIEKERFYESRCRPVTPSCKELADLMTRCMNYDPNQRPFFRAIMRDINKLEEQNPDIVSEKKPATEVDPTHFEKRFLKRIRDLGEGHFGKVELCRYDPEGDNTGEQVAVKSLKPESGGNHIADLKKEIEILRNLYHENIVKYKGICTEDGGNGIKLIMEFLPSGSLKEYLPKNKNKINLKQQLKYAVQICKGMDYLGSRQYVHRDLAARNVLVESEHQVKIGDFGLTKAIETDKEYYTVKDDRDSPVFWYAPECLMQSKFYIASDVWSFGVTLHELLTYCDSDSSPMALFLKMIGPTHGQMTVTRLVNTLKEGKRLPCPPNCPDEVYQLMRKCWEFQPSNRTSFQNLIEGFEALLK
From the text: (§9) A kinase assay with HTRF was used to observe JAK activity and calculate the IC50s of compounds disclosed herein. HTRF is an enzymatic assay used to determine the amount of phosphorylated peptide. FRET (Fluorescence Resonance Energy Transfer) is based on the transfer of energy between two fluorophores—a donor and an acceptor—when in close proximity. Molecular interactions between biomolecules can be assessed by coupling each partner with a fluorescent label and by detecting the level of energy transfer. The amount of phopshorylated peptide can be detected using a combination of a Eu 3+Cryptate labeled anti-phospho residue antibody, SA-XL665 and a biotinylated substrate. The signal is proportional to the concentration of phospho-residues.
(§10) Equipment Required • 1. […] Plate centrifuge • 3. Plate shaker • 4. […] Single channel and multi-channel pipettes • 6. Microplate reader (Pherastar)]
(§11) Stock and Final Assay Concentrations (FAC) • 1. All reference and test compounds are made at a concentration of 10 mM in DMSO. Compounds are serially diluted in DMSO and a FAC starting from 10 μM to 10 point 3 fold serial dilutions is arrived. For Ruxolitinib the starting FAC is 1 μM. FAC of DMSO is 1%. • 2. Enzyme stock and FAC
(§12) • JAK-1: Invtirogen Cat: PR8767C • JAK-2: Invtirogen Cat: PR7820B • JAK-3: Invtirogen Cat: PR7507B • 3. Substrate (synthetic peptide-Biotinylated-N-terminal tag-[…] from Biopeptide) stock and FAC
(§13) • Adenosine 5′-triphosphate disodium salt hydrate: Sigma Cat: A26209 • 5. […] Buffers • Base buffer (for 50 ml)
(§14) • HTRF buffer: • 50 mM Tris-HCl, pH—7.5 • 100 mM NaCl • 0.1% BSA • 0.05% Tween20 • 0.5 mM EDTA
(§15) To a 384 well black-plate: • 1. Add 17 μL of the buffer to each well of the 384-well black plate • 2. […] Add 5 μl of the enzyme to each well of the plate • 4. Add 10 μl of the substrate and ATP mix to all the wells • 5. Cover with plate sealer • 6. […] Incubate at room temperature for 1 hour on shaker • 8. […] Add 37.5 μL of the HTRF mix to these wells. • 9. Incubate the plate at room temperature on shaker for 45 minutes. • 10.
as §8

For another test, the target named is JAK3 (Homo sapiens (Human), UniProt P52333). The test can be described thus: HTRF kinase assay, JAK3. The format is biochemical. Particulars: Table 6.
JAK3, sequence (P52333 whole entry): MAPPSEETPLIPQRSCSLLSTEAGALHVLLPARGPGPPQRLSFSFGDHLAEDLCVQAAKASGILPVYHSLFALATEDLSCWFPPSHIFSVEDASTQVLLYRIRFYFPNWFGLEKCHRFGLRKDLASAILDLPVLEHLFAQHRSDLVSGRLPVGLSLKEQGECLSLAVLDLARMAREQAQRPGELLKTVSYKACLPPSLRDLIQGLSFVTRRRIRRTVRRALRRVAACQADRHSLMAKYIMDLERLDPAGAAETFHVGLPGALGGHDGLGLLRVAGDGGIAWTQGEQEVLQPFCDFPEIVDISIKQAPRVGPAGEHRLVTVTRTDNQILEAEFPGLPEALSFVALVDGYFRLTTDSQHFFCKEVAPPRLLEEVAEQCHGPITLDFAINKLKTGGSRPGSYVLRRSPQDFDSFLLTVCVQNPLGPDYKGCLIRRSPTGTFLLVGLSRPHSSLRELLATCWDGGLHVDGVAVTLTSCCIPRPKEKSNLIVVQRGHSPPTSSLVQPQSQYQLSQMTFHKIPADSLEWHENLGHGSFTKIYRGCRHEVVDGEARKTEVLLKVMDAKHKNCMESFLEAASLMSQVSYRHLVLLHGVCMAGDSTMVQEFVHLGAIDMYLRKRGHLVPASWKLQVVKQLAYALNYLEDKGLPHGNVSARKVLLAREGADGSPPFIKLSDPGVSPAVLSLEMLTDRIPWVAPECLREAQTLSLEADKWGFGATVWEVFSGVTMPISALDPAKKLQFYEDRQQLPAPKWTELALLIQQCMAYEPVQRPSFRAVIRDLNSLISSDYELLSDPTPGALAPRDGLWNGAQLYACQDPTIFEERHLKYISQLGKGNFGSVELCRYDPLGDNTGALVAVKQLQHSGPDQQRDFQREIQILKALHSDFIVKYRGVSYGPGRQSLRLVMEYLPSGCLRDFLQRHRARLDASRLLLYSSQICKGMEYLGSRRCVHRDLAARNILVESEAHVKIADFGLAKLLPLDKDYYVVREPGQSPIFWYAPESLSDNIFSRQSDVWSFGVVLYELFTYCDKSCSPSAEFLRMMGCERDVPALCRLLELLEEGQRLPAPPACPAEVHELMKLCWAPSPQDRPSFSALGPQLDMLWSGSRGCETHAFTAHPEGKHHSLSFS
From the text: as §9, §10, §11, §12, §13, §14, §15, §8

For orientation: IC50 means the midpoint of a concentration-inhibition curve.

JAK2, sequence (O60674 whole entry): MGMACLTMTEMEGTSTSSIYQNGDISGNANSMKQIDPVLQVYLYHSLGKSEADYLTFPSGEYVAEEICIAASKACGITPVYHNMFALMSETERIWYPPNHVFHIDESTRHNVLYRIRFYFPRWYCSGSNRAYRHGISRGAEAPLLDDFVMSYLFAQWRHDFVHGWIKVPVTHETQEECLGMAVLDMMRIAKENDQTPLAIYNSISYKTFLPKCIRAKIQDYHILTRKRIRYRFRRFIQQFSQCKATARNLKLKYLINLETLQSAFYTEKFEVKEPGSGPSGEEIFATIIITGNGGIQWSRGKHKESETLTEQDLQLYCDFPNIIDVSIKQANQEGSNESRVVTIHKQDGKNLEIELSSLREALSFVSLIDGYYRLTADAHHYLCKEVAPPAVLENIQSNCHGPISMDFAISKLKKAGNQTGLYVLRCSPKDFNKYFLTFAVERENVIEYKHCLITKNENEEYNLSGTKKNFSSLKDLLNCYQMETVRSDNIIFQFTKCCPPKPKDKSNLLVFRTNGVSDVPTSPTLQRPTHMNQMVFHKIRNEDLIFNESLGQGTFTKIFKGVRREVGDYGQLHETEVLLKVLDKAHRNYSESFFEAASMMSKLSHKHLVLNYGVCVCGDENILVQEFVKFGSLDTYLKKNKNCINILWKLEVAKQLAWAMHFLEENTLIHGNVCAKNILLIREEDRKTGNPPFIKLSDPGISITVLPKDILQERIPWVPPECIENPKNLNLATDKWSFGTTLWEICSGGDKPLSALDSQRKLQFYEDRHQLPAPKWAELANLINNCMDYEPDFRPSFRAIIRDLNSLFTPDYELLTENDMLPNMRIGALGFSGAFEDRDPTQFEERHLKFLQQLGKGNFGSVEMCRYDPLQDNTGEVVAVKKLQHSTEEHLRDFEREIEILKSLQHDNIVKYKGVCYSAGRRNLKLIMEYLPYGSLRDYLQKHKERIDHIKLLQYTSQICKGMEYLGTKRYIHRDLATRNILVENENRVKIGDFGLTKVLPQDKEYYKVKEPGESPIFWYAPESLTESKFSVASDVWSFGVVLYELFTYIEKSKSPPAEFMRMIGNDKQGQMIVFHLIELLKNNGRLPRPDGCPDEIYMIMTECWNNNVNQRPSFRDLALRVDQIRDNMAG

As to `O=S(=O)(Nc1cccc(-n2ccc3cnc(Nc4ccc(N5CCNCC5)cc4)nc32)c1)C1CC1` [drawing 296], the concentration for half-maximal inhibition (IC50) came to 677 nM at BRD4-BD1; 574 nM on BRD4-BD2; 2960 nM at BRD2-BD1; 914 nM on BRD3-BD1; 1210 nM on BRDT-BD1; 2 nM on JAK2. For the same compound, the IC50 was 188 nM on JAK1 and 15 nM at JAK3.

For `CN(C)C1CCN(c2ccc(Nc3ncc4ccn(-c5cccc(NS(=O)(=O)C(C)(C)C)c5)c4n3)cc2)CC1` [drawing 317], the IC50 turned out to be 173 nM on BRD4-BD1; 62 nM at BRD4-BD2; 632 nM at BRD2-BD1; 164 nM at BRD3-BD1; 406 nM at BRDT-BD1; 7.3 nM on JAK2. The concentration for half-maximal inhibition (IC50) is 400 nM on JAK1 and 81 nM on JAK3.

For `CN(C)C1CCN(c2ccc(Nc3ncc4ccn(-c5ccc(F)c(NS(=O)(=O)C(C)(C)C)c5)c4n3)cc2F)CC1` [drawing 366], the 50% inhibitory concentration (IC50) came out at 63 nM at BRD4-BD1; 88 nM at BRD4-BD2; 231 nM at BRD2-BD1; 49 nM at BRD3-BD1; 140 nM on BRDT-BD1; 27 nM on JAK2. Also, the half-inhibitory concentration (IC50) is 2100 nM at JAK1 and 193 nM at JAK3.

As to `CC(C)(C)S(=O)(=O)Nc1cc(-n2ccc3cnc(Nc4ccc(N5CCNCC5)c(F)c4)nc32)ccc1F` [drawing 428], the IC50 on BRD4-BD1 was found to be 60 nM; at BRD4-BD2 it was 64 nM; on BRD2-BD1 it was 216 nM; on BRD3-BD1, 59 nM; at BRDT-BD1, 118 nM; on JAK2, 33 nM. The IC50 on JAK1 worked out at 2100 nM; at JAK3, 272 nM.

Turning to `CC(C)(C)S(=O)(=O)Nc1cc(-n2ccc3cnc(Nc4cc(F)c5c(c4)CC4CNCCN54)nc32)ccc1F` (centres unmarked) [drawing 443], the IC50 at BRD4-BD1 was 79 nM; at BRD4-BD2 it was 85 nM; at BRD2-BD1, 235 nM; at BRD3-BD1, 81 nM; on BRDT-BD1, 185 nM; on JAK2, 40 nM. In addition, the half-inhibitory concentration (IC50) on JAK1 came to 3700 nM; on JAK3, 206 nM.

As for `CNC1CCN(c2ccc(Nc3ncc4ccn(-c5ccc(F)c(NS(=O)(=O)C(C)(C)C)c5)c4n3)cc2F)CC1` [drawing 456], the IC50 was 123 nM on BRD4-BD1; 86 nM on BRD4-BD2; 360 nM at BRD2-BD1; 97 nM at BRD3-BD1; 185 nM at BRDT-BD1; 39 nM at JAK2. For the same compound, the values for the concentration for half-maximal inhibition (IC50) on JAK1 and on JAK3 were 1500 nM and 173 nM, respectively.

On to `CNC1CCN(c2ccc(Nc3ncc4scc(-c5ccc(F)c(NS(=O)(=O)C(C)(C)C)c5)c4n3)cc2F)CC1` [drawing 458], for which the concentration for half-maximal inhibition (IC50) on BRD4-BD1 is 192 nM; on BRD4-BD2 it was 92 nM; at BRD2-BD1, 670 nM; on BRD3-BD1 it was 154 nM; on BRDT-BD1 it was 223 nM; on JAK2, 10 nM. In addition, the IC50 at JAK1 was found to be 1200 nM; at JAK3 it was 82 nM.

For `CC(C)(C)S(=O)(=O)Nc1cccc(-n2ccc3cnc(Nc4ccc(C(=O)N5CCNCC5)c(F)c4)nc32)c1` [drawing 462], the IC50 on BRD4-BD1 was 125 nM; at BRD4-BD2 it was 54 nM; at BRD2-BD1, 473 nM; at BRD3-BD1, 158 nM; at BRDT-BD1, 268 nM; at JAK2 it was 52 nM. In addition, the concentration for half-maximal inhibition (IC50) came to 992 nM on JAK1 and 403 nM at JAK3.

Consider `CC(C)(C)S(=O)(=O)Nc1cccc(-n2ccc3cnc(Nc4ccc(C(=O)N5CCNCC5)c(F)c4)nc32)c1` [drawing 463], for which the IC50 turned out to be 82 nM on BRD4-BD1; 54 nM at BRD4-BD2; 369 nM at BRD2-BD1; 123 nM at BRD3-BD1; 194 nM at BRDT-BD1; 28 nM at JAK2. The values for the IC50 at JAK1 and at JAK3 were 587 nM and 334 nM, respectively.

On to `CC(C)(C)S(=O)(=O)Nc1cc(-n2ccc3cnc(Nc4cc(F)c5c(c4)CC4CNCCN54)nc32)ccc1F` (centres unmarked) [drawing 465], for which the 50% inhibitory concentration (IC50) at BRD4-BD1 was found to be 115 nM; at BRD4-BD2 it was 120 nM; on BRD2-BD1, 353 nM; at BRD3-BD1, 83 nM; on BRDT-BD1, 292 nM; on JAK2, 61 nM. Besides, the concentration for half-maximal inhibition (IC50) on JAK1 was found to be 10000 nM; on JAK3, 285 nM.

The values above are taken from patent publication US11279703B2, “Fused pyrimidine compounds as BRD4 and JAK2 dual inhibitors and methods for use thereof” (APTOSE BIOSCIENCES INC., priority 2016, dated 2022).
